Measured values as given in article PMC12196476, “New Nitrogen-, Oxygen-, and Sulfur-Containing Heterocyclic Compounds as Anti-Colon Cancer Agents: Synthesis, Multitargeted Evaluations, Molecular Docking Simulations and ADMET Predictions” (Pharmaceuticals, 2025).

What was measured:
[1] = tested on: HCT-116 cells; test: Mitochondrial membrane potential (TMRE staining), HCT-116; type: cell-based, human; conditions: 30 µg/mL, 48 h
Description: To assess mitochondrial integrity, TMRE staining was used to measure ΔΨm.
The mitochondrial transmembrane potential was measured using a tetramethylrhodamine, ethyl ester (TMRE) mitochondrial membrane potential assay kit. […]
medium served used as negative and positive controls, respectively. Percentages of viable cells […]
wells (final concentration of 100 μg/mL), compared to the negative control, and expressed as mean value (%) ± SD from two replicates. Graphing dose-response curves representing the compound […]
(HUVECs) at final concentration of 100 μg/mL . HUVECs were grown in Dulbecco’s Modified Eagle’s Medium supplemented with 10% FBS, 2 mM glutamine (Sigma Aldrich), 100 units/mL penicillin and […] streptomycin (Life Technologies; Paisley, UK).
S3.2.5. Cell cycle assay.
HCT-116 and LoVo cultures upon treatment with compound 3d. HCT-116 and LoVo carcinoma […]
μg/mL for 48 h. […] Then, cells […]
were fixed by mixing […] of 90% cold ethanol and stained with propidium iodide (PI) for 1 h at 37 °C. […]
(§1) of stained cancerous cells were determined. […]
carcinoma cells treated with compound 3d was assessed using the TMRE Mitochondrial Membrane […]
for TMRE staining. TMRE was excited using a 488 nm laser and detected in the FL2 channel at 575 […]
S3.2.9. Quantification of the Expression Levels of Bax, Bcl-2 and Caspase-3 Genes […]

[2] = tested on: LoVo cells; test: Annexin V-FITC/PI apoptosis assay, LoVo; type: cell-based, human; conditions: 30 µg/mL, 48 h, Figure 3B plot
Description: Translocation of phosphatidylserine (PS) residues on the cell surface is an early apoptosis indicator, detectable through flow cytometric analysis and using double staining with propidium iodide (PI) dye and fluorescein isothiocyanate (FITC)-conjugated Annexin V (Annexin V-FITC). […]
μg/mL for 48 h. […]
S3.2.6. Annexin-V-FITC assay. […]
treatment with compound 3d. HCT-116 and LoVo cells were treated with vehicle (DMSO) and 3d […]
in Annexin-V binding buffer (BioVision Research Products, USA). The cells were then stained with Annexin V-FITC and propidium iodide (PI). Using the FITC signal detector (usually FL1) for […]
as §1

SMILES: COc1cc(/C=N/c2ncnc3sc4c(c23)CCCC4)cc(OC)c1OC [Compound 3d, (E)-N-(5,6,7,8-Tetrahydrobenzo[4,5]thieno[2,3-d]pyrimidin-4-yl)-1-(3,4,5-trimethoxyphenyl)methanimine]
- Reduction of mitochondrial membrane potential (ΔΨm), HCT-116 cells [1]: 43.47 ± 0.81%
- Necrotic population (Annexin-V−/PI+), LoVo [2]: 4.14%
- Late apoptotic cells (both Annexin-V and PI positive), LoVo ([2]; control 0.09%): 9.92%
- Early apoptotic cells (Annexin V-FITC positive and PI negative), LoVo ([2]; control 0.44%): 17.12%
